The results in this text go back to patent US10206909B2, “3-(1H-pyrrolo[2,3-B]pyridin-2-yl)-1H-pyrazolo[4,3-B]pyridines and therapeutic uses thereof” (Samumed, LLC, priority 2015, dated 2019).

Type in all cases: cell-based
One assay has as its system IL-6 (THP-1 cells). The assay can be described thus: IL-6 inhibition in LPS-stimulated THP-1 cells (HTRF). To be noted: Homo sapiens; for EC50: THP-1 cells, LPS 500 ng/mL, 22 hours, IL6 HTRF; for inhibition at 10 µM: given where EC50 >10 μM, THP-1, IL6, read-out: percent inhibition at 10 μM. An outline of the steps: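 THP-1 cells, pre-cultured 24 h in 1% FBS, were preincubated 2 h with compound over a 10-point 1:3 series from 10 μM (0.1% DMSO). They were then stimulated with 500 ng/mL LPS for 22 h at 37° C. IL-6 was read by HTRF 665/620 nm ratio, and EC50 was fitted by four-parameter regression against DMSO; above 10 μM, % inhibition at 10 μM is given.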
(In general: In TR-FRET formats the signal depends on donor and acceptor labels being close together.)

In another assay the test system is SW480 colon cancer cells. The assay can be described thus: Cell viability assay (CellTiter-Blue). To be noted: Homo sapiens; for EC50: 96 h, SW480 cell viability, four days, CellTiter-Blue; for inhibition at 10 µM: given where EC50 >10 μM, SW480 viability, read-out: percent inhibition at 10 μM. Summed up:
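Resazurin reduction (Ex 560/Em 590 nm, ~3 h reagent incubation) served as the viability read-out after SW480 cells were treated for four days at 37 °C. Doses ran from 10 μM down to 0.0045 μM in eight 1:3 steps. Curves fitted non-linearly for EC50, else % inhibition at 10 μM reported.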
(In general: Alamar Blue is a resazurin reagent that responds to reducing activity.)

Assay [1] deals with primary human fibroblasts derived from IPF patients (LL29 cells). As to the kind of experiment: Inhibition of the fibrotic process: αSMA staining in TGF-β1 treated fibroblasts. To be noted: Fibroblast; for EC50: 96 h, LL29 cells, TGF-β1 20 ng/mL, 4 days, % αSMA positive cells; for inhibition at 10 µM: given where EC50 >10 μM, LL29, αSMA, read-out: percent inhibition at 10 μM. Summed up: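 EC50 from triplicate-well dose-response fits of % αSMA-positive cells, normalized to TGF-β1-stimulated DMSO controls, with SYTOX-positive dead cells excluded. LL29 IPF fibroblasts received compound at 10 μM–1.87 nM (0.1% DMSO) plus 20 ng/mL TGF-β1 for 4 days in 1% FBS medium; above 10 μM, % inhibition at 10 μM reported.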

A value given as a limit tells only on which side of the number the result lay.

As a reminder, the EC50 is the midpoint of the concentration-response curve. By inhibition is commonly meant the change of the read-out against control, counted positive when it falls. For `O=C(Cc1ccccc1)Nc1cncc(-c2ccc3[nH]nc(-c4cc5c(-c6ccoc6)ccnc5[nH]4)c3n2)c1` [Compound 318, N-(5-(3-(4-(Furan-3-yl)-1H-pyrrolo[2,3-b]pyridin-2-yl)-1H-pyrazolo[4,3-b]pyridin-5-yl)pyridin-3-yl)-2-phenylacetamide], the EC50 was more than 10 µM in the assay with IL-6 (THP-1 cells), more than 10 µM in the assay on SW480 colon cancer cells and more than 10000 nM in assay [1]. For the same molecule, the inhibition at 10 µM in the assay on IL-6 (THP-1 cells) was determined as 46.6%; in the assay with SW480 colon cancer cells, 3%; in assay [1], 25.7%.

For `c1csc(-c2ccnc3[nH]c(-c4n[nH]c5ccc(-c6ccncc6)nc45)cc23)c1` [Compound 354, 5-(Pyridin-4-yl)-3-(4-(thiophen-2-yl)-1H-pyrrolo[2,3-b]pyridin-2-yl)-1H-pyrazolo[4,3-b]pyridine], the EC50 is 1.61 µM with IL-6 (THP-1 cells), more than 10 µM in the assay with SW480 colon cancer cells and 2250 nM in assay [1]. For the same molecule, the inhibition at 10 µM in the assay with SW480 colon cancer cells amounted to 39.8%.

`c1csc(-c2ccnc3[nH]c(-c4n[nH]c5ccc(-c6cncnc6)nc45)cc23)c1` [Compound 363, 5-(Pyrimidin-5-yl)-3-(4-(thiophen-2-yl)-1H-pyrrolo[2,3-b]pyridin-2-yl)-1H-pyrazolo[4,3-b]pyridine]: the EC50 is more than 10 µM in the assay with IL-6 (THP-1 cells), more than 10 µM in the assay on SW480 colon cancer cells and 546 nM in assay [1]. In addition, the inhibition at 10 µM with IL-6 (THP-1 cells) stood at 36.3%; with SW480 colon cancer cells it was 29.3%.

Take `CN(C)CCNc1cc(F)cc(-c2ccnc3[nH]c(-c4n[nH]c5ccc(-c6ccncc6)nc45)cc23)c1` [Compound 466, N^1-(3-Fluoro-5-(2-(5-(pyridin-4-yl)-1H-pyrazolo[4,3-b]pyridin-3-yl)-1H-pyrrolo[2,3-b]pyridin-4-yl)phenyl)-N^2,N^2-dimethylethane-1,2-diamine]: the EC50 in the assay on IL-6 (THP-1 cells) was more than 10 µM; in the assay on SW480 colon cancer cells, more than 10 µM; in assay [1], 391 nM. For the same molecule, the results for the inhibition at 10 µM in the assay on IL-6 (THP-1 cells) and in the assay with SW480 colon cancer cells were 31% and 16.8%, respectively.

Turning to `CN(C)CCNc1cc(F)cc(-c2ccnc3[nH]c(-c4n[nH]c5ccc(-c6cncc(CNCC7CCCC7)c6)nc45)cc23)c1` [Compound 473, N^1-(3-(2-(5-(5-(((Cyclopentylmethyl)amino)methyl)pyridin-3-yl)-1H-pyrazolo[4,3-b]pyridin-3-yl)-1H-pyrrolo[2,3-b]pyridin-4-yl)-5-fluorophenyl)-N^2,N^2-dimethylethane-1,2-diamine], the EC50 was determined as 6.75 µM in the assay with IL-6 (THP-1 cells), 2.26 µM with SW480 colon cancer cells and 2000 nM in assay [1].

On to `Fc1cccc(-c2ccnc3[nH]c(-c4n[nH]c5ccc(-c6cncc(OCc7ccccc7)c6)nc45)cc23)c1` [Compound 518, 5-(5-(Benzyloxy)pyridin-3-yl)-3-(4-(3-fluorophenyl)-1H-pyrrolo[2,3-b]pyridin-2-yl)-1H-pyrazolo[4,3-b]pyridine], for which the values for the EC50 (in the assay with IL-6 (THP-1 cells); in the assay with SW480 colon cancer cells; in assay [1]) were more than 10 µM, more than 10 µM and 2450 nM, respectively. For the same molecule, the inhibition at 10 µM came to 9.6% in the assay with IL-6 (THP-1 cells) and 17.3% in the assay on SW480 colon cancer cells.

Turning to `Oc1cncc(-c2ccc3[nH]nc(-c4cc5c(-c6ccc(F)cc6)ccnc5[nH]4)c3n2)c1` [Compound 533, 5-(3-(4-(4-Fluorophenyl)-1H-pyrrolo[2,3-b]pyridin-2-yl)-1H-pyrazolo[4,3-b]pyridin-5-yl)pyridin-3-ol], the results for the concentration giving a half-maximal response (EC50) (with IL-6 (THP-1 cells); in the assay on SW480 colon cancer cells; in assay [1]) were more than 10 µM, more than 10 µM and more than 10000 nM, respectively. In addition, the inhibition at 10 µM in the assay on IL-6 (THP-1 cells) is 37.1%; in the assay with SW480 colon cancer cells it was 15.4%; in assay [1], 43%.

As for `CN(C)CCOc1cncc(-c2ccc3[nH]nc(-c4cc5c(-c6cccnc6)ccnc5[nH]4)c3n2)c1` [Compound 563, N,N-Dimethyl-2-((5-(3-(4-(pyridin-3-yl)-1H-pyrrolo[2,3-b]pyridin-2-yl)-1H-pyrazolo[4,3-b]pyridin-5-yl)pyridin-3-yl)oxy)ethan-1-amine], the half-maximal effective concentration (EC50) was more than 10 µM in the assay with IL-6 (THP-1 cells), more than 10 µM with SW480 colon cancer cells and 3040 nM in assay [1]. Further, the inhibition at 10 µM worked out at 20.3% with IL-6 (THP-1 cells) and 0% with SW480 colon cancer cells.

As to `c1cc(-c2ccnc3[nH]c(-c4n[nH]c5ccc(-c6cncc(OCCN7CCCC7)c6)nc45)cc23)ccn1` [Compound 578, 3-(4-(Pyridin-4-yl)-1H-pyrrolo[2,3-b]pyridin-2-yl)-5-(5-(2-(pyrrolidin-1-yl)ethoxy)pyridin-3-yl)-1H-pyrazolo[4,3-b]pyridine], the results for the EC50 (with IL-6 (THP-1 cells); with SW480 colon cancer cells; in assay [1]) were more than 10 µM, more than 10 µM and 1240 nM, respectively. Moreover, the inhibition at 10 µM turned out to be 27% with IL-6 (THP-1 cells) and 14.7% in the assay on SW480 colon cancer cells.

On to `c1cc(N2CCCCC2)c2cc(-c3n[nH]c4ccc(C5CCNCC5)nc34)[nH]c2n1` [Compound 601, 3-(4-(Piperidin-1-yl)-1H-pyrrolo[2,3-b]pyridin-2-yl)-5-(piperidin-4-yl)-1H-pyrazolo[4,3-b]pyridine], for which the EC50 in the assay on IL-6 (THP-1 cells) is 3.5 µM; with SW480 colon cancer cells it was more than 10 µM; in assay [1], more than 10000 nM. Also, the inhibition at 10 µM is 40.7% in the assay on SW480 colon cancer cells and 20.1% in assay [1].

On to `CN1CCN(c2ccnc3[nH]c(-c4n[nH]c5ccc(-c6cn[nH]c6)nc45)cc23)CC1` [Compound 635, 3-(4-(4-Methylpiperazin-1-yl)-1H-pyrrolo[2,3-b]pyridin-2-yl)-5-(1H-pyrazol-4-yl)-1H-pyrazolo[4,3-b]pyridine], for which the concentration for a half-maximal effect (EC50) with IL-6 (THP-1 cells) is more than 10 µM; in the assay on SW480 colon cancer cells, more than 10 µM; in assay [1], 1500 nM. The inhibition at 10 µM in the assay on IL-6 (THP-1 cells) turned out to be 8.4%; with SW480 colon cancer cells, 13.3%.

In the case of `Cn1cc(-c2ccc3[nH]nc(-c4cc5cccnc5[nH]4)c3n2)cn1` [Compound 652, 5-(1-Methyl-1H-pyrazol-4-yl)-3-(1H-pyrrolo[2,3-b]pyridin-2-yl)-1H-pyrazolo[4,3-b]pyridine], the figures for the EC50 (with IL-6 (THP-1 cells); in the assay with SW480 colon cancer cells; in assay [1]) were 0.046 µM, more than 10 µM and 1210 nM, respectively. The inhibition at 10 µM in the assay with SW480 colon cancer cells came out at 29.2%.

With `O=C(CC1CCNCC1)Nc1cncc(-c2ccc3[nH]nc(-c4cc5c(-c6ccoc6)ccnc5[nH]4)c3n2)c1` [Compound 689, N-(5-(3-(4-(Furan-3-yl)-1H-pyrrolo[2,3-b]pyridin-2-yl)-1H-pyrazolo[4,3-b]pyridin-5-yl)pyridin-3-yl)-2-(piperidin-4-yl)acetamide], the EC50 was 3.34 µM with IL-6 (THP-1 cells), more than 10 µM in the assay on SW480 colon cancer cells and 2180 nM in assay [1]. In addition, the inhibition at 10 µM in the assay with SW480 colon cancer cells was found to be 9.2%.

As to `c1csc(-c2ccnc3[nH]c(-c4n[nH]c5ccc(-c6cncc(OC7CCCCC7)c6)nc45)cc23)c1` [Compound 703, 5-(5-(Cyclohexyloxy)pyridin-3-yl)-3-(4-(thiophen-2-yl)-1H-pyrrolo[2,3-b]pyridin-2-yl)-1H-pyrazolo[4,3-b]pyridine], the EC50 with IL-6 (THP-1 cells) was 0.303 µM; with SW480 colon cancer cells it was more than 10 µM; in assay [1], 1620 nM. Moreover, the inhibition at 10 µM in the assay on SW480 colon cancer cells came out at 52.9%.

In the case of `c1csc(-c2ccnc3[nH]c(-c4n[nH]c5ccc(-c6cncc(OC7CCNCC7)c6)nc45)cc23)c1` [Compound 704, 5-(5-(Piperidin-4-yloxy)pyridin-3-yl)-3-(4-(thiophen-2-yl)-1H-pyrrolo[2,3-b]pyridin-2-yl)-1H-pyrazolo[4,3-b]pyridine], the 50% effective concentration (EC50) in the assay on IL-6 (THP-1 cells) is 0.106 µM; in the assay with SW480 colon cancer cells it was more than 10 µM; in assay [1] it was 1820 nM. In addition, the inhibition at 10 µM with SW480 colon cancer cells is 49.5%.
